Test results: patent US10273262B2, “Crystalline form A of obeticholic acid and preparation method thereof” (CRYSTAL PHARMATECH CO., LTD., priority 2014, dated 2019)

Conditions: ethyl acetate and n-heptane 1:9, 25° C., 500 rpm, 24 hours
From the text: X-ray powder diffraction pattern in the present invention was acquired by a Panalytical Empyrean X-ray powder diffractometer. The parameters of the X-ray powder diffraction method of the present invention were as follows: • X-ray Reflection: Cu, Kα • Kα1 (Å): 1.540598; Kα2 (Å): 1.544426 • Kα2/Kα1 intensity ratio: 0.50 • Voltage: 45 (kV) • Current: 40 (mA) • Scan range: from 3.0 degree to 40.0 degree The pattern of differential scanning calorimetry (DSC) in the present invention was acquired by a TA Q200. The parameters of the differential scanning calorimetry (DSC) method of the present invention were as follow: • Heating rate: 10° C./min • Purge gas: nitrogen. The pattern of thermal gravimetric analysis (TGA) in the present invention was acquired by a TA Q5000. The parameters of the thermal gravimetric analysis (TGA) method of the present invention were as follow: • Heating rate: 10° C./min; • Purge gas: nitrogen.
The suspension was stirred at 500 rpm in a thermostat at 25° C. for 24 hours, and centrifuged to give a solid which was tested by XRPD.

- Crystal form after stirring the suspension (form conversion by XRPD): transferred to crystalline Form A
SMILES: CC[C@H]1[C@@H](O)[C@@H]2[C@H](CC[C@]3(C)[C@@H]([C@H](C)CCC(=O)O)CC[C@@H]23)[C@@]2(C)CC[C@@H](O)C[C@@H]12 [Form C, obeticholic acid]
